The text below walks through data of patent publication US5264148A, “Moisture scavenging oxazolidines” (Angus Cheical Company, priority 1990, dated 1993).

By LD50 is commonly meant the dose expected to kill half of the subjects tested. Higher therefore signals a less toxic substance.

Read-outs that look alike come from different tables or passages of the source.

Series [1] is described as follows: Comparison of water-scavenging activity in pigment millbase (GC determination of remaining water). The source says: The water-scavenging activity of 4-ethyl-2-isopropyl oxazolidine (BBA), 1-aza-3,7-dioxo-2,8-diisopropyl-5-ethylbicyclo (3.3.0) octane (EBA), p-toluenesulfonyl isocyanate (PTSI), isophorone diisocyanate (IPDI), and sodium potassium aluminosilicate (SPAS) were compared in pigment millbase formulation. Formulations of this type are representative of pigment formulations used in moisture-curing urethane coating systems. The following millbase formulation was used: […]
The following procedure was used to prepare the millbase. All the materials were weighed out and added under agitation into a pot. Soft Resin P-65, obtained from Mobay Corp., is a 65% synthetic (non-reactive polyester) resin in solvent Naphtha 100 and is employed as a grind aid. CAB 551, obtained from Eastman Chemical Products, Inc., Kingsport, Tenn., is cellulose acetate butyrate ester and was employed as a rheology aid. CAB 551 was dissolved in PMA. PMA is propylene glycol monomethyl ether acetate obtained from Eastman Chemical Products, Inc. The solution of CAB 551 in PMA included 33% CAB 551 by weight. Anti-Terra-U is a wetting and dispersing additive obtained from BYK-Chemie U.S.A., Wallingford Conn., and is a solution of a salt of unsaturated polyamine amides and higher molecular weight acidic esters. Ektasolve-EEP, obtained from Eastman Chemicals Products, Inc., is ethyl-3-ethoxypropionate stabilized with 2,6-di-tert-butyl- p-cresol, and was employed as a solvent. M-P-A 2000X, obtained from Rheox, Inc., Hightstown, N.J., was employed as an antisettling agent. R-960-TiO2 is a titanium dioxide pigment obtained from E.I. du Pont Nemours & Co., Inc., Wilmington, Del.
Once the ingredients were added to the vessel they were continuously agitated until a 7 Hegman grind value was obtained for the mixture. The millbase was then heated to 60° C. A portion of the mixture was removed, and the percent of water remaining was determined using gas chromatography. Using the determined percentage of water, the minimum amount of the water-scavenger compound to be added to the millbase was calculated using the following equation:
Minimum weight of water scavenger=wt. mb.×wt. % H2 O×(1/MW
H2 O×mol.×MW scavenger/purity)
The determined amount of each moisture-scavenger was added to one millbase. Six millbases were prepared. Each of the five moisture-scavengers listed above were tested in a millbase with one millbase remaining untreated as a control. Once the millbases were treated, they were mixed continuously. At 30 minutes, 60 minutes, 120 minutes, 180 minutes, 240 minutes, and 300 minutes, samples of the millbase were removed and the amount of water remaining in the millbase was determined using gas chromatography. In each trial two moles of moisture scavenger was used for every mole of water. The results of 6 trials are summarized below in Table I and graphically represented in FIG. 1.

For series [2], the system named is four strains of Salmonella typhimurium. In words: Ames Mutagenicity Assay. The following applies: presence and absence of exogenous mammalian activation system. The class given is cell-based. How it is done:
The Ames Mutagenicity Assay was performed to determine the mutagenicity of the compound. The assay evaluates the mutagenic potential of a test substance by its ability to induce back mutations at selected loci of four strains of Salmonella typhimurium in the presence and absence of an exogenous mammalian activation system.

A short description of series [3]: Acute oral toxicity (TSCA, 40 CFR Part 798, 798.1175). The following applies: rat, in vivo, dose levels 1.80, 1.50 and 1.30 g/kg, male and female Sprague-Dawley rats. How it is done: Based upon the standards of the Toxic Substance Control Act (TSCA), 40 CFR, Part 798, Subpart A, General Toxicity Testing, Acute Oral Toxicity, 798.1175, July 1989, 2-isopropyl-4-ethyl oxazolidine was evaluated for its potential to produce death following oral administration at dose levels of 1.80g/kg, 1.50 g/kg, and 1.30 g/kg, to male and female Sprague-Dawley rates.

Series [4] has as its system skin of New Zealand White Rabbits. In words: Primary dermal irritation (TSCA, Section 798.4470). Type of series: in vivo. The following applies: single topical application, TSCA guidelines. How it is done:
Based upon the standards of the Toxic Substances Control Act (TSCA), 40 CFR, Part 798, Subpart E, Specific Organ/Tissue Toxicity, Primary Dermal Irritation, Section 798.4470, July 1989, 2-isopropyl-4-ethyl oxazolidine was evaluated for its potential to produce primary dermal irritation after a single topical application to the skin of New Zealand White Rabbits.

Series [5] deals with male and female New Zealand White albino rabbits. Description: Acute dermal toxicity (TSCA, 789.1100). Type of series: in vivo. The following applies: topical, 2 g/Kg. How it is done: Based upon the standards of the Toxic Substance Control Act (TSCA), 40 CFR, Part 798, Subpart A, General Toxicity Testing, Acute Dermal Toxicity, 789.1100, July 1989, the compound was evaluated for its potential to produce systematic toxicity or death following topical application at a dose of 2 g/Kg in male and female New Zealand White albino rabbits.

Series [6] is described as follows: Acute oral toxicity (FIFRA, 40 CFR 162). The class given is in vivo, Sprague-Dawley derived, albino rats. The following applies: rat, in vivo, undiluted, male and female Sprague-Dawley rats. How it is done:
(§1) The acute oral toxicity of the compound was evaluated in compliance with the conditions specified in the Regulation for the Enforcement of Federal Insecticide, Fungicide and Rodenticide Act (40 CFR 162). The compound was administered undiluted at a dosage of 5.0 g/kg to one group of five male and five female, Sprague-Dawley derived, albino rats. […] Animals were weighed seven days after treatment. At the end of the 14-day observation period, the rats were weighed, killed, and given a gross necropsy.

The test system of series [7] is male and female Sprague-Dawley derived albino rats. Description: Acute oral toxicity (FIFRA, 40 CFR 162). The class given is in vivo. The following applies: undiluted, 5.0 g/kg, rats. How it is done:
as §1

A short description of series [8]: Acute dermal toxicity (FIFRA, 40 CFR 162). Type of series: in vivo, New Zealand White Rabbits. The following applies: rabbit, in vivo, topical or ocular, undiluted, male and female New Zealand White rabbits. How it is done: (§2) The acute dermal toxicity of the compound was evaluated in compliance with the conditions specified in the Regulation for the Enforcement of Federal Insecticide, Fungicide and Rodenticide Act (40 CFR 162). The compound was applied undiluted to the skin of one group of five male and five female New Zealand White Rabbits at a dosage of 2.0 g/kg for 24 hours. […] Animals were weighted 7 days after treatment. At the end of the 14day observation period, the rabbits were weighed, killed, and given a gross necropsy.

Series [9] deals with skin of male and female New Zealand White Rabbits. In words: Acute dermal toxicity (FIFRA, 40 CFR 162). Type of series: in vivo. The following applies: undiluted, 2.0 g/kg for 24 hours, rabbits. How it is done: as §2
Series [10] has as its system intact skin of New Zealand White rabbits. In words: Primary skin irritation (FIFRA, 40 CFR 162). Type of series: in vivo. The procedure: The primary skin irritation of the compound was evaluated in compliance with the conditions specified in the Regulation for the Enforcement of Federal Insecticide, Fungicide and Rodenticide Act (40 CFR 162). A small amount of the compound (0.5 ml) was applied to an intact skin site on six New Zealand White rabbits (three males and three females) and allowed to remain in contact with the skin for 4 hours. The sites were scored for erythema and edema and checked for tissue damage 1/2 hour after the end of the application period (41/2 hour reading) and […] (24-hour reading) and at 48 and 72 hours.

The subject of series [11] is eye of New Zealand White rabbits. Description: Primary eye irritation (FIFRA, 40 CFR 162). Type of series: in vivo. How it is done:
The primary […] irritation of the compound was evaluated in compliance with the conditions specified in the Regulation for the Enforcement of Federal Insecticide, Fungicide and Rodenticide Act (40 CFR 162). A small amount of the undiluted compound (0.1 ml) was applied to the right or left eye of six New Zealand White rabbits (one male and five females). The compound was allowed to remain without rinsing in the eyes of the animals. The eyes were graded for corneal changes, conjunctival changes, and changes in the iris one hour after application, and one, two, three, four, and seven days later.

The mark [12] stands for this setting: 2 hrs, millbase heated to 60° C., two moles of scavenger per mole of water.

With `CCC1COC(C(C)C)N1` (stereo not drawn) [BBA, 4-ethyl-2-isopropyl oxazolidine], in series [1], the “% H2O Remaining After 30 min.” value is “.20%”, the “% H2O Remaining After 60 min.” value is recorded as “.19%” and the “% H2O Remaining After 2 hrs.” value is “.13%”. In series [2], the “mutagenicity (Ames)” value is “non-mutagenic”. In [3], this molecule yielded an LD50 of 1600 mg/kg. In addition, in [4], the “primary dermal irritation classification” value was “moderate irritant”. The “acute dermal toxicity classification” value in [5] (TSCA guidelines) is “non-toxic”. In addition, the “acute dermal toxicity: mortality” value in series [5] (male and female rabbits) was “absence of mortality”.

Regarding `Cc1ccc(S(=O)(=O)N=C=O)cc1` [PTSI, p-toluenesulfonyl isocyanate, reference compound], the “% H2O Remaining After 30 min.” value in [1] (30 min, millbase heated to 60° C., two moles of scavenger per mole of water) is reported as “< .05%”. Also, the “% H2O Remaining After 60 min.” value in [1] (60 min, millbase heated to 60° C., two moles of scavenger per mole of water) is listed as “< .05%”. In addition, the “% H2O Remaining After 2 hrs.” value in series [1] (setting [12]) is recorded as “< .05%”.

In the case of `CCC12COC(C(C)C)N1C(C(C)C)OC2` (stereo not drawn) [EBA], in [1], the “% H2O Remaining After 30 min.” value is recorded as “.08%”, the “% H2O Remaining After 60 min.” value was “.08%” and the “% H2O Remaining After 2 hrs.” value is given as “.06%”. Further, in [2], the “mutagenicity (Ames)” value is listed as “non-mutagenic”. In [6], this molecule yielded an LD50 at 336 h of over 5000 mg/kg. Further, in [7] (14-day observation), the clinical changes result is “urine and/or fecal stains, mucoid feces, and alopecia”; the deaths result is recorded as “No deaths occurred”. The gross necropsy findings result in series [7] (end of 14-day observation) is “one rat with darkened and mottled lungs, otherwise no gross changes”. The molecule also showed an LD50 at 336 h in series [8] of over 2000 mg/kg. Also, in series [9] (14-day observation), the clinical changes entry was “No clinical changes were observed” and the deaths result is “No deaths occurred”. The gross necropsy findings entry in series [9] (end of 14-day observation) is “no significant gross changes”. Besides, in series [9], the “most frequently observed irritative effects” value is “erythema and desquamation”. Also, in series [10] (0.5 ml, 4 hours contact, 72 hours after application), the persistence of irritation result is reported as “Mild irritation persisted 72 hours after application”. Besides, in [10] (rabbit, in vivo), the “Primary Irritation Index” value came out at 2.7 and the “tissue damage (corrosion)” value is given as “No evidence of tissue damage (corrosion)”. Besides, the eye irritation persistence result in series [11] (0.1 ml undiluted, without rinsing, six rabbits) was “irritation persisting for seven days”. In addition, in series [11] (rabbit, in vivo), the corneal opacity entry is reported as “corneal opacity persisting for less than seven days”.

For `CC1(C)CC(N=C=O)CC(C)(CN=C=O)C1` (stereo not drawn) [IPDI, isophorone diisocyanate, reference compound], the “% H2O Remaining After 2 hrs.” value in series [1] (setting [12]) was “< .02%”.
